In PMC10745882, “Investigation of Drug-Interaction Potential for Arthritis Dietary Supplements: Chondroitin Sulfate, Glucosamine, and Methylsulfonylmethane” (Molecules, 2023):

Key:
CYP1A2 = molecular target: T1, CYP1A2 (Homo sapiens, UniProt P05177); test: CYP inhibition assay in human liver microsomes (LC-MS/MS cocktail), phenacetin to acetaminophen; assay type: in vitro ADME
T1 construct: Pooled human liver microsomes were purchased from BD Gentest; tissue BD Gentest; host or cells: pooled human liver microsomes
T1 sequence (P05177 1-516): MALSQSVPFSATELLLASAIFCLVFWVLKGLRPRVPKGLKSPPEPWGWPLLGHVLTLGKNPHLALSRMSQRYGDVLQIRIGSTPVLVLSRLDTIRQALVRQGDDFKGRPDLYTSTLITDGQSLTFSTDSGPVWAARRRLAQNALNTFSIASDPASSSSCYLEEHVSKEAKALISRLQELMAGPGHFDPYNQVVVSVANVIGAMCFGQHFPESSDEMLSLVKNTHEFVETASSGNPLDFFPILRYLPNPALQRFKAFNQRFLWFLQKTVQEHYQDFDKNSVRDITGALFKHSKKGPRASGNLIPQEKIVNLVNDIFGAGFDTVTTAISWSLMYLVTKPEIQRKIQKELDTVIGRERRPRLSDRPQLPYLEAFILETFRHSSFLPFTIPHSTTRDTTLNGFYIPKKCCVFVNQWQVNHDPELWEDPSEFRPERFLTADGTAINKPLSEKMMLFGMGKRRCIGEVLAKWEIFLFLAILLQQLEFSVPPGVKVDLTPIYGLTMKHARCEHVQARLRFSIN
Experimental: (§1) For the experimental method, the reference method was used. Briefly, incubation mixtures were composed of 0.5 mg/mL human liver microsomes; varying concentrations of CS in DW (0.1, 0.3, 1, 3, 10, 30, 100, and 200 µM) or MSM in DW (0.1, 0.3, 1, 3, 10, 30, 100, 300, and 1000 µM) or GCS in DMSO (0.1, 0.3, 1, 3, 10, 30, 100, 300, and 1000 µM); a substrate mixture in DMSO (40 µM phenacetin for CYP1A2; 2.5 µM coumarin for CYP2A6; 80 µM bupropion for CYP2B6; 10 µM diclofenac for CYP2C9; 80 µM [±]-mephenytoin for CYP2C19; 5 µM dextromethorphan for CYP2D6; 2.5 µM midazolam and 30 µM testosterone for CYP3A4); and an NADPH generating system (NGS; 0.1 M glucose-6-phosphate, 10 mg/mL β-NADP^+, and 1 U/mL glucose-6-phosphate dehydrogenase) in a total volume of 200 µL potassium phosphate buffer (0.1 M, pH 7.4). The reaction mixture, excluding NGS, underwent pre-incubation at 37 °C for 5 min, followed by further incubation with NGS for 30 min in a water bath. Well-established selective CYP inhibitors were employed as positive controls (40 µM ketoconazole for CYP3A4, 50 µM furafyllin for CYP1A2, 10 µM quinidine for CYP2D6, 125 µM ticlopidine for CYP2C19 and CYP2B6, 10 µM 8-methoxsalen for CYP2A6, and 10 µM sulfaphenazole for CYP2C9). Post incubation, the reaction was halted by adding 50 µL ice-cold 1% formic acid acetonitrile. After centrifugation at 13,200 rpm for 5 min, the supernatant was collected from the sample and subjected to analysis via an LC-MS/MS system. All experiments were performed in triplicate.
(§2) For the experimental method, the reference method was used. The LC-MS/MS system utilized in this study consisted of an Agilent 1260 binary pump HPLC system coupled with the Agilent 6460 Triple Quadrupole mass spectrometer (Agilent Technologies, Santa Clara, CA, USA), featuring an electrospray ionization source. Chromatographic separation was achieved using a Fortis C8 column (2.1 × 100 mm, 5.0 µm; Fortis Technologies Ltd., Neston, UK). The HPLC mobile phases comprised (A) 0.1% formic acid and (B) 0.1% formic acid in 90% acetonitrile. A gradient elution method was employed with an initial solvent B concentration of 15% and a flow rate of 0.25 mL/min. […] The total run time was 11.0 min, and the injection volume was 5 µL. Mass detection was conducted in the positive ion mode using multiple reaction monitoring (MRM). Specific MRM transitions for each analyte are detailed in Table S4.

CYP2C19 = molecular target: T2, CYP2C19 (Homo sapiens, UniProt P33261); test: CYP inhibition assay in human liver microsomes (LC-MS/MS cocktail), mephenytoin to 4-OH-mephenytoin; assay type: in vitro ADME
T2 construct: Pooled human liver microsomes were purchased from BD Gentest; tissue BD Gentest; host or cells: pooled human liver microsomes
T2 sequence (P33261 whole entry): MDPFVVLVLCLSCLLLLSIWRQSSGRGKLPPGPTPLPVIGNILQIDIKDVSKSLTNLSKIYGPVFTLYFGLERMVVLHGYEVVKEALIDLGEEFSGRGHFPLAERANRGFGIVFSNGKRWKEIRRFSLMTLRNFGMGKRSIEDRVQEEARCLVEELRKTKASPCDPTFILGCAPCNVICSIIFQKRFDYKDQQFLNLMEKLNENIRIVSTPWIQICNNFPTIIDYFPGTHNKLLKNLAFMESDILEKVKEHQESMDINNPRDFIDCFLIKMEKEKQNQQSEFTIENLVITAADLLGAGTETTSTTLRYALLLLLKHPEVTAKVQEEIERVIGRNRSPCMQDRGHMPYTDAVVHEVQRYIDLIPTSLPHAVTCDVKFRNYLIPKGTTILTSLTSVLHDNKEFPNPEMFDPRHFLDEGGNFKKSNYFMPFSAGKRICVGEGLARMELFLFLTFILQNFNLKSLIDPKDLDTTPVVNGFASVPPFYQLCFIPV
Experimental: as §1, §2

CYP3A4(M) = molecular target: T3, CYP3A4(M) (Homo sapiens, UniProt P08684); test: CYP inhibition assay in human liver microsomes (LC-MS/MS cocktail), midazolam to 1-OH-midazolam; assay type: in vitro ADME
T3 construct: Pooled human liver microsomes were purchased from BD Gentest; tissue BD Gentest; host or cells: pooled human liver microsomes
T3 sequence (P08684 whole entry): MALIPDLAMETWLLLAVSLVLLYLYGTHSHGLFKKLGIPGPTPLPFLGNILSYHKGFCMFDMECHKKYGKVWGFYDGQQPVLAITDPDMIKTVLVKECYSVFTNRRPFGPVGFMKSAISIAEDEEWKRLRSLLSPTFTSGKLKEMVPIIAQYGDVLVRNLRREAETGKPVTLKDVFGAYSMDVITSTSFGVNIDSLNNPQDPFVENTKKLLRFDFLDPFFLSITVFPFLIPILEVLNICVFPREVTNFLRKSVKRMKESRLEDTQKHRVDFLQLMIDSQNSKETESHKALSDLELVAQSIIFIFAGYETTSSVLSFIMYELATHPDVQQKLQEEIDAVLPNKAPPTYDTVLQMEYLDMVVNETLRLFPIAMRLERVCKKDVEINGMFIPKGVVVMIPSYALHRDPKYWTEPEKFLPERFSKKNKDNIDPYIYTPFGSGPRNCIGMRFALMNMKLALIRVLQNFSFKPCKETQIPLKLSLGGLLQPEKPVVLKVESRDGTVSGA
Experimental: For the experimental method, the reference method was used. […] The reaction mixture, excluding NGS, underwent pre-incubation at 37 °C for 5 min, followed by further incubation with NGS for 30 min in a water bath. […] Post incubation, the reaction was halted by adding 50 µL ice-cold 1% formic acid acetonitrile. After centrifugation at 13,200 rpm for 5 min, the supernatant was collected from the sample and subjected to analysis via an LC-MS/MS system. All experiments were performed in triplicate.
For the experimental method, the reference method was used. […] The HPLC mobile phases comprised (A) 0.1% formic acid and (B) 0.1% formic acid in 90% acetonitrile. […] The total run time was 11.0 min, and the injection volume was 5 µL. Mass detection was conducted in the positive ion mode using multiple reaction monitoring (MRM). Specific MRM transitions for each analyte are detailed in Table S4.

CYP3A4(T) = molecular target: T4, CYP3A4(T) (Homo sapiens, UniProt P08684); test: CYP inhibition assay in human liver microsomes (LC-MS/MS cocktail), testosterone to 6-β-OH-Testosterone; assay type: in vitro ADME
T4 construct: Pooled human liver microsomes were purchased from BD Gentest; tissue BD Gentest; host or cells: pooled human liver microsomes
T4 sequence (P08684 whole entry): as above
Experimental: as §1, §2

[1] = parameters: method as in doi:10.4172/2155-9600.1000748, PMID 16168682, PMID 19912983; details: common daily dose 1500 mg/day; cited from earlier work
CYP2D6 = molecular target: T5, CYP2D6 (Homo sapiens, UniProt P10635); parameters: method as in PMID 34821124, PMID 29488228; details: previous studies; cited from earlier work
T5 construct: Pooled human liver microsomes were purchased from BD Gentest; tissue BD Gentest; host or cells: pooled human liver microsomes
T5 sequence (P10635 whole entry): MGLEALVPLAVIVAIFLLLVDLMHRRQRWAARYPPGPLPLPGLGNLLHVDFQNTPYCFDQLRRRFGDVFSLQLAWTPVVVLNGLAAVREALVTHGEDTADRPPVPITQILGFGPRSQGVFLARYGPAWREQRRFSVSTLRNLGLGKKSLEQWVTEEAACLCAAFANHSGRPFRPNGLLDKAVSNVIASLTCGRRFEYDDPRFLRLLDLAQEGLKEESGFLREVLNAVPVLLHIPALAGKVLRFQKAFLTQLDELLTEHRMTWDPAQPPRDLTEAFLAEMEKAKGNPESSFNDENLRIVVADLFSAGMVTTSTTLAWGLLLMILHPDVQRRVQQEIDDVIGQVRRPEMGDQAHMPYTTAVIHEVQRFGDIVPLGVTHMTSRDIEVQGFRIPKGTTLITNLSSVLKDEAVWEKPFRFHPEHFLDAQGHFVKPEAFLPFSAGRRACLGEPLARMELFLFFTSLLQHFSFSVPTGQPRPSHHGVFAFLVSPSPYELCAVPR

Remaining Activities (% of Control, n = 3) (CYP1A2; test substance 0.3 μM): 110.2 ± 20.5 % of Control
Remaining Activities (% of Control, n = 3) (CYP1A2; test substance 1 μM): 103.1 ± 1.5 % of Control
Remaining Activities (% of Control, n = 3) (CYP1A2; test substance 3 μM): 101.1 ± 7.5 % of Control
Remaining Activities (% of Control, n = 3) (CYP1A2; test substance 10 μM): 94.2 ± 1.8 % of Control
Remaining Activities (% of Control, n = 3) (CYP1A2; test substance 30 μM): 94.1 ± 3.0 % of Control
Remaining Activities (% of Control, n = 3) (CYP1A2; test substance 100 μM): 97.2 ± 3.7 % of Control
Remaining Activities (% of Control, n = 3) (CYP1A2; test substance 300 μM): 86.7 ± 2.8 % of Control
Remaining Activities (% of Control, n = 3) (CYP1A2; test substance 1000 μM): 82.5 ± 12.0 % of Control
Remaining Activities (% of Control, n = 3) (CYP2C19; test substance 0.3 μM): 128.4 ± 27.9 % of Control
Remaining Activities (% of Control, n = 3) (CYP2C19; test substance 1 μM): 102.5 ± 3.0 % of Control
Remaining Activities (% of Control, n = 3) (CYP2C19; test substance 3 μM): 102.6 ± 8.8 % of Control
Remaining Activities (% of Control, n = 3) (CYP2C19; test substance 10 μM): 101.9 ± 4.3 % of Control
Remaining Activities (% of Control, n = 3) (CYP2C19; test substance 30 μM): 90.5 ± 8.7 % of Control
Remaining Activities (% of Control, n = 3) (CYP2C19; test substance 100 μM): 100.3 ± 3.7 % of Control
Remaining Activities (% of Control, n = 3) (CYP2C19; test substance 300 μM): 95.5 ± 5.6 % of Control
Remaining Activities (% of Control, n = 3) (CYP2C19; test substance 1000 μM): 88.7 ± 7.3 % of Control
Remaining Activities (% of Control, n = 3) (CYP3A4(M); test substance 0.3 μM): 104.4 ± 13.5 % of Control
Remaining Activities (% of Control, n = 3) (CYP3A4(M); test substance 1 μM): 103.5 ± 3.2 % of Control
Remaining Activities (% of Control, n = 3) (CYP3A4(M); test substance 3 μM): 98.3 ± 1.9 % of Control
Remaining Activities (% of Control, n = 3) (CYP3A4(M); test substance 10 μM): 97.2 ± 1.5 % of Control
Remaining Activities (% of Control, n = 3) (CYP3A4(M); test substance 30 μM): 96.9 ± 6.1 % of Control
Remaining Activities (% of Control, n = 3) (CYP3A4(M); test substance 100 μM): 95.2 ± 8.2 % of Control
Remaining Activities (% of Control, n = 3) (CYP3A4(M); test substance 300 μM): 91.0 ± 3.3 % of Control
Remaining Activities (% of Control, n = 3) (CYP3A4(M); test substance 1000 μM): 88.7 ± 12.1 % of Control
Remaining Activities (% of Control, n = 3) (CYP3A4(T); test substance 0.3 μM): 92.8 ± 0.6 % of Control
Remaining Activities (% of Control, n = 3) (CYP3A4(T); test substance 1 μM): 92.4 ± 0.9 % of Control
Remaining Activities (% of Control, n = 3) (CYP3A4(T); test substance 3 μM): 91.1 ± 3.1 % of Control
Remaining Activities (% of Control, n = 3) (CYP3A4(T); test substance 10 μM): 91.7 ± 4.4 % of Control
Remaining Activities (% of Control, n = 3) (CYP3A4(T); test substance 30 μM): 91.8 ± 3.0 % of Control
Remaining Activities (% of Control, n = 3) (CYP3A4(T); test substance 100 μM): 84.8 ± 7.8 % of Control
Remaining Activities (% of Control, n = 3) (CYP3A4(T); test substance 300 μM): 82.1 ± 3.4 % of Control
Remaining Activities (% of Control, n = 3) (CYP3A4(T); test substance 1000 μM): 80.0 ± 6.6 % of Control
Compound: N[C@H]1C(O)O[C@H](CO)[C@@H](O)[C@@H]1O (stereo partly shown) [GCS, glucosamine]
maximum plasma concentrations [1]: ~9 µM
inhibitory effects on CYP2D6 (CYP2D6): no inhibitory effects
